In patent publication US10342869B2, “Compositions comprising anti-CD38 antibodies and lenalidomide” (SANOFI, priority 2012, dated 2019):

What was measured:
tumor cells [1] = experiment: Apoptosis induction on tumor cells (preclinical studies); type: cell-based; settings: without cross-linking
[2] = test system: NCI-H929 multiple myeloma model; experiment: NCI-H929 subcutaneous multiple myeloma xenograft mouse model; type: in vivo, mice; settings: lenalidomide 1 mg/kg/day PO QD × 21 d; for Activity: hu38SB19 0.5 mg/kg/injection IV 2x/wk × 2 wk
Text: (§1) The subcutaneous multiple myeloma (MM) xenograft mouse models were established using H929 and RPMI8226 cell lines. Specifically, 5-6 week old female Balb/c Scid mice were obtained from Jackson Lab. Mice were housed for 7-10 days prior to implantation. Mice were housed in a dedicated room in the UCSF Mt Zion Animal Barrier Facility. NCI-H929 and RPMI-8226 cells were obtained from the German Collection of Microorganisms and Cell Cultures, DSMZ, (Deutsche Sammlung von Mikroorganismen and Zellkulturen), and grown in sterile suspension culture in T225 flasks as follows: NCI-H929:RPMI1640+20% FBS+4 mM L-glutamine+1 mM sodium pyruvate+50 μM mercaptoethanol. RPMI-8226:RPMI1640+10% FBS+4 mM L-glutamine.
(§2) At the time of implantation, mice were shaved on the right flank and shoulder region and anesthetized with ip avertin. MM cells suspended in serum free RPMI 1640 media diluted 1:1 with Matrigel (BD) at a concentration of 1×10^8 cells per ml were injected sc into the right flank in 100 μL volume (1×10^7 cells) using a 1 ml syringe and 25 g needle. Mice were monitored twice weekly for the appearance of tumors and once tumors were visible, measurements were collected twice weekly for body weight and tumor volume. Electronic balance and calipers were used and data was collected directly into a study management program (Study Director). When the mean tumor volume reached about 150-200 mm^3, the mice were distributed into treatment groups of 8-10 mice per groups and dosing was begun.
(§3) Data were collected using electronic balance and calipers using a study management application called StudyLog (Study Director).
(§4) Antitumor activity was determined according to NCI standards based on the ratio of the median tumor volume change of the treated/median tumor volume change of the control×100 (% ΔT/ΔC). Low numerical values for ΔT/ΔC describe stronger anti-tumor activity. Anti-tumor activity is defined as ΔT/ΔC≤40% at minimum. ΔT/ΔC<10% is considered high anti-tumor activity.

RPMI-8226 tumors = experiment: RPMI-8226 hind-flank xenograft model (Example 3, FIGS. 13-14); type: in vivo, mice; settings: RPMI-8226 xenograft; hu38SB19 twice weekly × 2 wk IV; lenalidomide qdx7×3 wk PO
Protocol: Lenolidomide (TC27682) was obtained from AK Scientific Inc. (Mountain View, Calif.) and prepared as a suspension in 1% (w/v) carboxymethyl cellulose (Sigma). Preparation was made using a mortar and pestle to generate a slurry suspension in the vehicle, diluted to the appropriate concentration, and used for dosing by oral gavage. Lenalidomide was administered qdx7×3 wk PO.
Zion Animal Barrier Facility.
RPMI-8226 were cultured in RPMI1640+10% FBS+4 mM L-glutamine.

tumor cells [3] = experiment: ADCC on tumor cells; type: cell-based
[4] = test system: RPMI-8226 multiple myeloma model; experiment: RPMI-8226 subcutaneous multiple myeloma xenograft mouse model; settings: RPMI-8226 xenograft, hu38SB19 15 mg/kg/injection IV 2x/wk × 2 wk, lenalidomide 15 mg/kg/day PO QD × 21 d
Text: as §1, §2, §3, §4

tumor cells [5] = settings: reported for other CD38 antibodies; cited from earlier work

hu38SB19: humanized anti-CD38 antibody; VH SEQ ID NO: 66, VL SEQ ID NO: 62 or 64
Pro-apoptotic activity on tumor cells (tumor cells [1]): potent direct pro-apoptotic activity | Activity [2]: Active | Tumor growth inhibition (RPMI-8226 tumors): dose-dependent inhibition of tumor growth | ADCC activity on tumor cells (tumor cells [3]): potent ADCC | Activity [4]: Inactive

Daratumumab: CD38 antibody reported to induce apoptosis only after cross-linking
Apoptosis induction (tumor cells [5]): able to induce apoptosis only after cross-linking with a secondary antibody

Nc1cccc2c1CN(C1CCC(=O)NC1=O)C2=O (racemic) [Lenalidomide, (RS)-3-(4-amino-1-oxo-3H-isoindol-2-yl)piperidine-2,6-dione]
% ΔT/ΔC (D69) ([2]; D69, hu38SB19 0.5 mg/kg/injection IV 2x/wk × 2 wk): 20% | Activity [2]: Active | Activity ([2]; listed as lenalidomide): active | Tumor growth inhibition (RPMI-8226 tumors): not robustly sensitive to single-agent therapy | % ΔT/ΔC (D69) ([4]; D69): 61% | Activity [4]: Inactive | Activity ([4]; listed as lenalidomide): inactive
